Drawing on ChEMBL document CHEMBL1649191, “Genetic organization of transposase regions surrounding blaKPC carbapenemase genes on plasmids from Klebsiella strains isolated in a New York City hospital” (2009), this text covers MIC for ten molecules.

In brackets after ≈: the same amount, converted by molar mass.

Type in all cases: functional
In experiment [1] the test system is Klebsiella pneumoniae. The experiment in a line: Antimicrobial activity against blaKPC-positive Klebsiella pneumoniae S9 by broth microdilution method. For orientation: In broth dilution the organism is exposed to a series of concentrations in liquid medium.
Experiment [2] relates to Klebsiella pneumoniae. The experiment in a line: Antimicrobial activity against blaKPC-positive Klebsiella pneumoniae S15 by broth microdilution method.
Another experiment deals with Klebsiella oxytoca. The experiment in a line: Antimicrobial activity against blaKPC-positive Klebsiella oxytoca S13 by broth microdilution method.
In experiment [3] the test system is Klebsiella pneumoniae. Kind of experiment: Antimicrobial activity against blaKPC-positive Klebsiella pneumoniae S11 by broth microdilution method.
Experiment [4] concerns Klebsiella pneumoniae. Kind of experiment: Antimicrobial activity against blaKPC-positive Klebsiella pneumoniae S12 by broth microdilution method.
The subject of experiment [5] is Klebsiella pneumoniae. The experiment in a line: Antimicrobial activity against blaKPC-positive Klebsiella pneumoniae S5 by broth microdilution method.
The subject of experiment [6] is Klebsiella pneumoniae. Kind of experiment: Antimicrobial activity against blaKPC-positive Klebsiella pneumoniae S10 by broth microdilution method.
For experiment [7], the system named is Klebsiella pneumoniae. The experiment in a line: Antimicrobial activity against blaKPC-positive Klebsiella pneumoniae S1 by broth microdilution method.
Experiment [8] has as its system Klebsiella pneumoniae. Kind of experiment: Antimicrobial activity against blaKPC-positive Klebsiella pneumoniae S2 by broth microdilution method.
Experiment [9] relates to Klebsiella pneumoniae. Kind of experiment: Antimicrobial activity against blaKPC-positive Klebsiella pneumoniae S8 by broth microdilution method.
For experiment [10], the system named is Klebsiella pneumoniae. The experiment in a line: Antimicrobial activity against blaKPC-positive Klebsiella pneumoniae S14 by broth microdilution method.
In experiment [11] the test system is Klebsiella pneumoniae. Kind of experiment: Antimicrobial activity against blaKPC-positive Klebsiella pneumoniae S7 by broth microdilution method.
Experiment [12] relates to Klebsiella pneumoniae. The experiment in a line: Antimicrobial activity against blaKPC-positive Klebsiella pneumoniae S3 by broth microdilution method.
Experiment [13] deals with Klebsiella pneumoniae. Kind of experiment: Antimicrobial activity against blaKPC-positive Klebsiella pneumoniae S6 by broth microdilution method.
In experiment [14] the test system is Klebsiella pneumoniae. Kind of experiment: Antimicrobial activity against blaKPC-positive Klebsiella pneumoniae S4 by broth microdilution method.

Usually MIC stands for the least concentration at which growth counts as inhibited. Read a high MIC as a need for much substance. As to `CO/N=C(\C(=O)N[C@@H]1C(=O)N2C(C(=O)[O-])=C(C[N+]3(C)CCCC3)CS[C@H]12)c1csc(N)n1`, the minimal inhibitory concentration (MIC) against Klebsiella pneumoniae [1], with Klebsiella pneumoniae [2], against Klebsiella oxytoca, with Klebsiella pneumoniae [3], against Klebsiella pneumoniae [4] and against Klebsiella pneumoniae [5] was more than 64 µg/mL throughout. Further, the minimum inhibitory concentration (MIC) was more than 64 µg/mL against Klebsiella pneumoniae [6]; 32 µg/mL (≈ 66.6 µM) against Klebsiella pneumoniae [7]; more than 64 µg/mL with Klebsiella pneumoniae [8]; 64 µg/mL (≈ 133 µM) against Klebsiella pneumoniae [9]; more than 64 µg/mL with Klebsiella pneumoniae [10]; more than 64 µg/mL in the experiment on Klebsiella pneumoniae [11]. Besides, the minimal inhibitory concentration (MIC) was more than 64 µg/mL in the experiment on Klebsiella pneumoniae [12], more than 64 µg/mL against Klebsiella pneumoniae [13] and 64 µg/mL (≈ 133 µM) with Klebsiella pneumoniae [14].
In the case of `NCC[C@H](O)C(=O)N[C@@H]1C[C@H](N)[C@@H](O[C@H]2O[C@H](CN)[C@@H](O)[C@H](O)[C@H]2O)[C@H](O)[C@H]1O[C@H]1O[C@H](CO)[C@@H](O)[C@H](N)[C@H]1O` [AMIKACIN], the MIC stood at 16 µg/mL (≈ 27.3 µM) with Klebsiella pneumoniae [1]; 32 µg/mL (≈ 54.6 µM) in the experiment with Klebsiella pneumoniae [2]; 4 µg/mL (≈ 6.83 µM) with Klebsiella oxytoca; 2 µg/mL (≈ 3.42 µM) against Klebsiella pneumoniae [3]; 16 µg/mL (≈ 27.3 µM) in the experiment with Klebsiella pneumoniae [4]; 64 µg/mL (≈ 109 µM) in the experiment with Klebsiella pneumoniae [5]. The MIC was more than 64 µg/mL against Klebsiella pneumoniae [6]; 16 µg/mL (≈ 27.3 µM) against Klebsiella pneumoniae [7]; 32 µg/mL (≈ 54.6 µM) with Klebsiella pneumoniae [8]; more than 64 µg/mL against Klebsiella pneumoniae [9]; 32 µg/mL (≈ 54.6 µM) against Klebsiella pneumoniae [10]; 1 µg/mL (≈ 1.71 µM) in the experiment on Klebsiella pneumoniae [11]. In addition, the minimum inhibitory concentration (MIC) in the experiment on Klebsiella pneumoniae [12] worked out at 32 µg/mL (≈ 54.6 µM); in the experiment with Klebsiella pneumoniae [13] it was 32 µg/mL (≈ 54.6 µM); in the experiment with Klebsiella pneumoniae [14] it was 1 µg/mL (≈ 1.71 µM).
As to `C[C@H]1[C@H](NC(=O)/C(=N\OC(C)(C)C(=O)O)c2csc(N)n2)C(=O)N1S(=O)(=O)O` [AZTREONAM], the minimum inhibitory concentration (MIC) in the experiment with Klebsiella pneumoniae [1], against Klebsiella pneumoniae [2], in the experiment with Klebsiella oxytoca, against Klebsiella pneumoniae [3], with Klebsiella pneumoniae [4] and in the experiment on Klebsiella pneumoniae [5] was more than 64 µg/mL in each case. Further, the MIC in the experiment with Klebsiella pneumoniae [6], with Klebsiella pneumoniae [7], in the experiment on Klebsiella pneumoniae [8], in the experiment on Klebsiella pneumoniae [9], with Klebsiella pneumoniae [10] and against Klebsiella pneumoniae [11] was more than 64 µg/mL in each case. Also, the MIC against Klebsiella pneumoniae [12], in the experiment on Klebsiella pneumoniae [13] and against Klebsiella pneumoniae [14] was more than 64 µg/mL throughout.
Consider `CC(C)(O/N=C(\C(=O)N[C@@H]1C(=O)N2C(C(=O)[O-])=C(C[n+]3ccccc3)CS[C@H]12)c1csc(N)n1)C(=O)O` [CEFTAZIDIME], for which the MIC is more than 64 µg/mL against Klebsiella pneumoniae [1]; more than 64 µg/mL in the experiment with Klebsiella pneumoniae [2]; more than 64 µg/mL against Klebsiella oxytoca; 16 µg/mL (≈ 29.3 µM) in the experiment on Klebsiella pneumoniae [3]; more than 64 µg/mL against Klebsiella pneumoniae [4]; more than 64 µg/mL in the experiment with Klebsiella pneumoniae [5]. For the same molecule, the MIC in the experiment on Klebsiella pneumoniae [6] is more than 64 µg/mL; against Klebsiella pneumoniae [7], more than 64 µg/mL; with Klebsiella pneumoniae [8], more than 64 µg/mL; with Klebsiella pneumoniae [9], more than 64 µg/mL; in the experiment on Klebsiella pneumoniae [10] it was more than 64 µg/mL; with Klebsiella pneumoniae [11], 32 µg/mL (≈ 58.5 µM). Moreover, the results for the MIC in the experiment on Klebsiella pneumoniae [12], with Klebsiella pneumoniae [13] and in the experiment with Klebsiella pneumoniae [14] were 64 µg/mL (≈ 117 µM), more than 64 µg/mL and 8 µg/mL (≈ 14.6 µM), respectively.
Regarding `O=C(O)c1cn(C2CC2)c2cc(N3CCNCC3)c(F)cc2c1=O` [CIPROFLOXACIN], the MIC in the experiment with Klebsiella pneumoniae [1] was more than 64 µg/mL; in the experiment on Klebsiella pneumoniae [2] it was more than 64 µg/mL; in the experiment with Klebsiella oxytoca it was 0.06 µg/mL (≈ 0.181 µM); against Klebsiella pneumoniae [3], 1 µg/mL (≈ 3.02 µM); in the experiment on Klebsiella pneumoniae [4], less than 0.06 µg/mL; against Klebsiella pneumoniae [5], more than 64 µg/mL. For the same molecule, the minimum inhibitory concentration (MIC) in the experiment on Klebsiella pneumoniae [6] was more than 64 µg/mL; in the experiment on Klebsiella pneumoniae [7] it was more than 64 µg/mL; in the experiment on Klebsiella pneumoniae [8], more than 64 µg/mL; against Klebsiella pneumoniae [9], more than 64 µg/mL; with Klebsiella pneumoniae [10], 64 µg/mL (≈ 193 µM); in the experiment on Klebsiella pneumoniae [11], 32 µg/mL (≈ 96.6 µM). The MIC was more than 64 µg/mL against Klebsiella pneumoniae [12], more than 64 µg/mL against Klebsiella pneumoniae [13] and 0.06 µg/mL (≈ 0.181 µM) against Klebsiella pneumoniae [14].
As for `C[C@@H](O)[C@H]1C(=O)N2C(C(=O)O)=C(SCCNC=N)C[C@H]12` [IMIPENEM ANHYDROUS], the minimal inhibitory concentration (MIC) in the experiment on Klebsiella pneumoniae [1] is more than 64 µg/mL; in the experiment with Klebsiella pneumoniae [2], 64 µg/mL (≈ 214 µM); against Klebsiella oxytoca, 32 µg/mL (≈ 107 µM); against Klebsiella pneumoniae [3], 32 µg/mL (≈ 107 µM); in the experiment with Klebsiella pneumoniae [4], 32 µg/mL (≈ 107 µM); against Klebsiella pneumoniae [5] it was 64 µg/mL (≈ 214 µM). In addition, the minimum inhibitory concentration (MIC) is 64 µg/mL (≈ 214 µM) in the experiment on Klebsiella pneumoniae [6]; 32 µg/mL (≈ 107 µM) in the experiment with Klebsiella pneumoniae [7]; 32 µg/mL (≈ 107 µM) in the experiment on Klebsiella pneumoniae [8]; 64 µg/mL (≈ 214 µM) against Klebsiella pneumoniae [9]; more than 64 µg/mL in the experiment with Klebsiella pneumoniae [10]; 32 µg/mL (≈ 107 µM) against Klebsiella pneumoniae [11]. Moreover, the MIC in the experiment on Klebsiella pneumoniae [12] was determined as 32 µg/mL (≈ 107 µM); in the experiment with Klebsiella pneumoniae [13], 32 µg/mL (≈ 107 µM); in the experiment with Klebsiella pneumoniae [14], 8 µg/mL (≈ 26.7 µM).
For `C[C@@H](O)[C@H]1C(=O)N2C(C(=O)O)=C(S[C@@H]3CN[C@H](C(=O)N(C)C)C3)[C@H](C)[C@H]12` [MEROPENEM], the MIC is more than 64 µg/mL in the experiment with Klebsiella pneumoniae [1]; 64 µg/mL (≈ 167 µM) in the experiment with Klebsiella pneumoniae [2]; 32 µg/mL (≈ 83.4 µM) against Klebsiella oxytoca; 32 µg/mL (≈ 83.4 µM) against Klebsiella pneumoniae [3]; 32 µg/mL (≈ 83.4 µM) against Klebsiella pneumoniae [4]; 64 µg/mL (≈ 167 µM) against Klebsiella pneumoniae [5]. In addition, the minimum inhibitory concentration (MIC) was 64 µg/mL (≈ 167 µM) in the experiment on Klebsiella pneumoniae [6]; more than 64 µg/mL against Klebsiella pneumoniae [7]; 64 µg/mL (≈ 167 µM) against Klebsiella pneumoniae [8]; 64 µg/mL (≈ 167 µM) in the experiment with Klebsiella pneumoniae [9]; 64 µg/mL (≈ 167 µM) in the experiment with Klebsiella pneumoniae [10]; 32 µg/mL (≈ 83.4 µM) with Klebsiella pneumoniae [11]. The minimum inhibitory concentration (MIC) against Klebsiella pneumoniae [12] and in the experiment on Klebsiella pneumoniae [13] was 64 µg/mL (≈ 167 µM) throughout.
In the case of `CN(C)c1cc(NC(=O)CNC(C)(C)C)c(O)c2c1C[C@H]1C[C@H]3[C@H](N(C)C)C(O)=C(C(N)=O)C(=O)[C@@]3(O)C(O)=C1C2=O` [TIGECYCLINE], the MIC with Klebsiella pneumoniae [1] was 2 µg/mL (≈ 3.41 µM); against Klebsiella pneumoniae [2], 1 µg/mL (≈ 1.71 µM); against Klebsiella oxytoca, 0.25 µg/mL (≈ 0.427 µM); against Klebsiella pneumoniae [3], 0.25 µg/mL (≈ 0.427 µM); against Klebsiella pneumoniae [4], 0.25 µg/mL (≈ 0.427 µM); with Klebsiella pneumoniae [5], 1 µg/mL (≈ 1.71 µM). The minimum inhibitory concentration (MIC) in the experiment on Klebsiella pneumoniae [6] amounted to 1 µg/mL (≈ 1.71 µM); with Klebsiella pneumoniae [7] it was 1 µg/mL (≈ 1.71 µM); against Klebsiella pneumoniae [8], 1 µg/mL (≈ 1.71 µM); in the experiment with Klebsiella pneumoniae [9], 2 µg/mL (≈ 3.41 µM); against Klebsiella pneumoniae [10], 0.25 µg/mL (≈ 0.427 µM); against Klebsiella pneumoniae [11], 0.5 µg/mL (≈ 0.854 µM). In addition, the minimal inhibitory concentration (MIC) with Klebsiella pneumoniae [12] stood at 1 µg/mL (≈ 1.71 µM); in the experiment with Klebsiella pneumoniae [13], 4 µg/mL (≈ 6.83 µM); against Klebsiella pneumoniae [14], 0.5 µg/mL (≈ 0.854 µM).
With GENTAMICIN, the minimal inhibitory concentration (MIC) was determined as 1 µg/mL against Klebsiella pneumoniae [1]; 2 µg/mL against Klebsiella pneumoniae [2]; 8 µg/mL in the experiment with Klebsiella oxytoca; 16 µg/mL in the experiment with Klebsiella pneumoniae [4]; 1 µg/mL in the experiment on Klebsiella pneumoniae [5]; 8 µg/mL with Klebsiella pneumoniae [6]. In addition, the minimum inhibitory concentration (MIC) turned out to be 2 µg/mL against Klebsiella pneumoniae [8]; 8 µg/mL in the experiment with Klebsiella pneumoniae [9]; 32 µg/mL in the experiment on Klebsiella pneumoniae [10]; 8 µg/mL against Klebsiella pneumoniae [11]; 2 µg/mL in the experiment on Klebsiella pneumoniae [12]; 1 µg/mL against Klebsiella pneumoniae [13].
POLYMYXIN B: the MIC is 4 µg/mL in the experiment on Klebsiella pneumoniae [1]; 4 µg/mL with Klebsiella pneumoniae [2]; 4 µg/mL against Klebsiella oxytoca; 16 µg/mL with Klebsiella pneumoniae [3]; 2 µg/mL against Klebsiella pneumoniae [4]; 4 µg/mL with Klebsiella pneumoniae [5]. The minimal inhibitory concentration (MIC) in the experiment on Klebsiella pneumoniae [6] was found to be 4 µg/mL; in the experiment on Klebsiella pneumoniae [7], 2 µg/mL; against Klebsiella pneumoniae [8], 8 µg/mL; in the experiment with Klebsiella pneumoniae [9], 8 µg/mL; in the experiment with Klebsiella pneumoniae [10] it was 1 µg/mL; with Klebsiella pneumoniae [11] it was 16 µg/mL. The minimal inhibitory concentration (MIC) in the experiment with Klebsiella pneumoniae [12] is 8 µg/mL; in the experiment with Klebsiella pneumoniae [13], 16 µg/mL; against Klebsiella pneumoniae [14], 8 µg/mL.
